Here are results for 19 molecules from patent US9187458B2, “Cyanoquinoline derivatives” (Tianjin Hemay Bio-Tech Co., LTD., priority 2010, dated 2015).

A word on the IC50: it is the point on the concentration scale where inhibition reaches its midpoint. Lower therefore signals greater potency in that assay.

The first experiment concerns BT-474 cells. Kind of experiment: BT-474 Cell Growth Inhibition Test (SRB Assay). The format is cell-based, human. The conditions noted are these: Homo sapiens, 70 h incubation. Here is the method: BT-474 Cell Growth Inhibition Test (SRB Assay)
1. Cell strains: BT-474 (human breast tumor cell strains);
2. SRB: available from Sigmaaldrich, goods number: S9012, lot number: 047K3751. SRB was reserved at the room temperature. 0.4% (w/v) of working solution was formulated with 1% of glacial acetic acid. The solution was reserved at the temperature of 4° C.; anti-tumor compounds; DMSO.
Culture medium (90% EMEM+10% FBS+0.1 mM NEAA, reserved at 4° C.);
1. A plate (10 cm) of cells in logarithmic growth phase normally cultured was collected. The culture solution was sucked out. The plate was washed with 5 mL of PBS 1-2 times;
2. PBS was sucked out, and […] of 0.25% pancreatin was added to infiltrate the cells for 30 s;
3. The pancreatin was sucked out. The culture plate was pleaced in an incubator. Digestion was carried out for about 5 min at 37° C.;
4. 3 mL of complete culture solution was added to the culture plate to stop the digestion. The cells were carefully scoured with micropipette (1 ml) to give a uniform single cell suspension;
5. Cell suspension was counted. The suspension was diluted to 1×10^5/ml. The resulting suspension was developed uniformly on a plate. The plate was incubated under 5% CO2 at 37° C. overnight. In day 2, 80 μL of complete culture medium was added in each well and then 20 μL of culture solution comprising a compound was added. The mixture was incubated for 70 h under 5% CO2 at 37° C.
6. The culture solution was sucked out. 100 uL of TCA fixed cells which were diluted to 10% were added to each well. The plate was kept in a refrigerator for 1 h at 4° C.
7. TCA stationary liquid was sucked out. Each well was washed with 150 μL of ddH2O five times;
8. After the stationary liquid was cleansed, the plate was dried in the air at the room temperature;
9. 60 μL of SRB staining solution was added in each well. The well was stained for 15 min at the room temperature;
10. The SRB staining solution was sucked out. Each well was washed with 150 μL of 1% glacial acetic acid five times;
11. After the SRB staining solution was cleansed, the plate was dried in the air at the room temperature;
12. 100 μL of 10 mM Tris was added in each well. The plate was vibrated to dissolve out SRB;
13. OD values were determined at 570 nM.
(§1) 1. Calculation of Relative Inhibition Ratio The inhibition ratio of a compound on cell growth=(PC−n)/(PC−NC)×100%
IC50: Concentration of a compound where inhibition ratio was 50%. IC50 values were fitted with Origin7.5.
`C#Cc1cccc(Nc2c(C#N)cnc3cc(O[C@H]4CCOC4)c(NC(=O)/C=C/CN(CCOC)CCOC)cc23)c1` [Example 191, (S,E)-N-(3-CYANO-4-(3-ETHYNYLPHENYLAMINO)-7-(TETRAHYDROFURAN-3-YL-OXY)QUINOLIN-6-YL)-4-(DIMETHOXYETHYLAMINO)-BUT-2-ENAMIDE] registered a half-maximal inhibitory concentration (IC50) of 390 nM.

The same experiment, now with this note: Homo sapiens, BT-474, 70 h, compound 1 μM, 70 h incubation, read-out: Growth Inhibition Ratio (%).
Take `CN(C)C/C=C/C(=O)Nc1cc2c(Nc3ccc(OCc4ccccc4C#N)c(Cl)c3)c(C#N)cnc2cc1O[C@H]1CCOC1` [Example 162, (S,E)-N-(4-(4-(2-CYANOBENZYLOXY)-3-CHLOROPHENYLAMINO)-3-CYANO-7-(TETRAHYDROFURAN-3-YL-OXY)QUINOLIN-6-YL)-4-(DIMETHYLAMINO)-BUT-2-ENAMIDE]: the inhibition at 1 µM was 80%.

Regarding `N#Cc1cnc2cc(O[C@H]3CCOC3)c(NC(=O)/C=C/CN3CCCCC3)cc2c1Nc1ccc(F)c(Cl)c1` [Example 169, (S,E)-N-(4-(3-CHLORO-4-FLUOROPHENYLAMINO)-3-CYANO-7-(TETRAHYDROFURAN-3-YL-OXY)QUINOLIN-6-YL)-4-(PIPERIDIN-1-YL)-BUT-2-ENAMIDE], the inhibition at 1 µM is 80%.

Regarding `CN(C/C=C/C(=O)Nc1cc2c(Nc3ccc(OCc4cccc(F)c4)c(Cl)c3)c(C#N)cnc2cc1O[C@H]1CCOC1)CCO` [Example 198, (S,E)-N-(3-CYANO-4-(4-(3-FLUOROBENZYLOXY)-3-CHLOROPHENYLAMINO)-7-(TETRAHYDROFURAN-3-YL-OXY)QUINOLIN-6-YL)-4-(N-METHYLETHANOLAMINO)-BUT-2-ENAMIDE], the inhibition at 1 µM was 78%.

Regarding `CCN(CC)C/C=C/C(=O)Nc1cc2c(Nc3ccc(F)c(Cl)c3)c(C#N)cnc2cc1O[C@H]1CCOC1` [Example 168, (S,E)-N-(4-(3-CHLORO-4-FLUOROPHENYLAMINO)-3-CYANO-7-(TETRAHYDROFURAN-3-YL-OXY)QUINOLIN-6-YL)-4-(DIETHYLAMINO)-BUT-2-ENAMIDE], the inhibition at 1 µM is 86%.

In the case of `N#Cc1cnc2cc(O[C@H]3CCOC3)c(NC(=O)/C=C/CN3CCOCC3)cc2c1Nc1ccc(OCc2cccc(F)c2)c(Cl)c1` [Example 173, (S,E)-N-(4-(4-(3-FLUOROBENZYLOXY)-3-CHLOROPHENYLAMINO)-3-CYANO-7-(TETRAHYDROFURAN-3-YL-OXY)QUINOLIN-6-YL)-4-(MORPHOLIN-4-YL)-BUT-2-ENAMIDE], the inhibition at 1 µM turned out to be 67%.

`COCCN(C/C=C/C(=O)Nc1cc2c(Nc3ccc(OCc4ccccn4)c(Cl)c3)c(C#N)cnc2cc1O[C@H]1CCOC1)CCOC` [Example 203]: the inhibition at 1 µM amounted to 82%.

Turning to `COCCN(C)C/C=C/C(=O)Nc1cc2c(Nc3ccc(OCc4ccccn4)c(Cl)c3)c(C#N)cnc2cc1O[C@H]1CCOC1` [Example 201, (S,E)-N-(3-CYANO-4-(3-CHLORO-4-(PYRIDIN-2-YL-METHOXY)PHENYLAMINO)-7-(TETRAHYDROFURAN-3-YL-OXY)QUINOLIN-6-YL)-4-(N-METHYLMETHOXY ETHYLAMINO)-BUT-2-ENAMIDE], the inhibition at 1 µM worked out at 80%.

As for `CN(C)C/C=C/C(=O)Nc1cc2c(Nc3cccc(Br)c3)c(C#N)cnc2cc1O[C@H]1CCOC1` [Example 156, (S,E)-N-(4-(3-BROMOPHENYLAMINO)-3-CYANO-7-(TETRAHYDROFURAN-3-YL-OXY)QUINOLIN-6-YL)-4-(DIMETHYLAMINO)-BUT-2-ENAMIDE], the inhibition at 1 µM came to 70%.

As to `N#Cc1cnc2cc(O[C@H]3CCOC3)c(NC(=O)/C=C/CN3CCCCC3)cc2c1Nc1ccc(OCc2cccc(F)c2)c(Cl)c1` [Example 172, (S,E)-N-(4-(4-(3-FLUOROBENZYLOXY)-3-CHLOROPHENYLAMINO)-3-CYANO-7-(TETRAHYDROFURAN-3-YL-OXY)QUINOLIN-6-YL)-4-(PIPERIDIN-1-YL)-BUT-2-ENAMIDE], the inhibition at 1 µM is 62%.

In the case of `CCN(CC)C/C=C/C(=O)Nc1cc2c(Nc3ccc(OCc4cccc(F)c4)c(Cl)c3)c(C#N)cnc2cc1O[C@H]1CCOC1` [Example 171, (S,E)-N-(4-(4-(3-FLUOROBENZYLOXY)-3-CHLOROPHENYLAMINO)-3-CYANO-7-(TETRAHYDROFURAN-3-YL-OXY)QUINOLIN-6-YL)-4-(DIETHYLAMINO)-BUT-2-ENAMIDE], the inhibition at 1 µM is 84%.

Consider `C#Cc1cccc(Nc2c(C#N)cnc3cc(O[C@H]4CCOC4)c(NC(=O)/C=C/CNCc4ccccc4)cc23)c1` [Example 147, (S,E)-N-(3-CYANO-4-(3-ETHYNYLPHENYLAMINO)-7-(TETRAHYDROFURAN-3-YL-OXY)QUINOLIN-6-YL)-4-(BENZYLAMINO)-BUT-2-ENAMIDE], for which the inhibition at 1 µM was determined as 75%.

On to `N#Cc1cnc2cc(O[C@H]3CCOC3)c(NC(=O)/C=C/CN(CCO)CCO)cc2c1Nc1ccc(F)c(Cl)c1` [Example 192, (S,E)-N-(3-CYANO-4-(3-CHLORO-4-FLUORO-PHENYLAMINO)-7-(TETRAHYDROFURAN-3-YL-OXY)QUINOLIN-6-YL)-4-(DIETHANOLAMINO)-BUT-2-ENAMIDE], for which the inhibition at 1 µM is 85%.

As for `N#Cc1cnc2cc(O[C@H]3CCOC3)c(NC(=O)/C=C/CNCCCCCCO)cc2c1Nc1ccc(F)c(Cl)c1` [Example 205, (S,E)-N-(3-CYANO-4-(3-CHLORO-4-FLUORO-PHENYLAMINO)-7-(TETRAHYDROFURAN-3-YL-OXY)QUINOLIN-6-YL)-4-(6-HYDROXYHEXYLAMINO)-BUT-2-ENAMIDE], the inhibition at 1 µM amounted to 75%.

Staying with this experiment, now noted: compound 1 μM, 70 h incubation.
As to `CCN(CC)C/C=C/C(=O)Nc1cc2c(Nc3ccc(OCc4ccccn4)c(Cl)c3)c(C#N)cnc2cc1O[C@H]1CCOC1` [Example 184, (S,E/Z)-N-(4-(3-CHLORO-4-(PYRIDIN-2-YL-METHOXY)PHENYLAMINO)-3-CYANO-7-(TETRAHYDROFURAN-3-YL-OXY)QUINOLIN-6-YL)-4-(DIETHYLAMINO)-BUT-2-ENAMIDE], the “Growth Inhibition Ratio (%)” value is on record as 83%.

For the molecule `N#Cc1cnc2cc(O[C@H]3CCOC3)c(NC(=O)/C=C/CN3CCOCC3)cc2c1Nc1ccc(OCc2ccccn2)c(Cl)c1` [Example 186, (S,E/Z)-N-(4-(3-CHLORO-4-(PYRIDIN-2-YL-METHOXY)PHENYLAMINO)-3-CYANO-7-(TETRAHYDROFURAN-3-YL-OXY)QUINOLIN-6-YL)-4-(MORPHOLIN-4-YL)-BUT-2-ENAMIDE], the “Growth Inhibition Ratio (%)” value came out at 80%.

Another experiment concerns A431 cells. Kind of experiment: A431 Cell Growth Inhibition Test (MTT Assay). The format is cell-based, human. Particulars: Homo sapiens, A-431, 68 h, compound 1 μM, 68 h incubation, read-out: Growth Inhibition Ratio (%). Here is the method: A431 Cell Growth Inhibition Test (MTT Assay)
1. Cell strains: A431 (human epithelial […] cell strains);
Culture medium: 45% DMEM, 45% F12+10% FBS;
1. A plate (10 cm) of cells in logarithmic growth phase normally cultured was collected;
2. The culture solution was sucked out. The plate was washed with 5 ml of PBS 1-2 times;
3. PBS was sucked out, and 2 ml of 0.25% pancreatin was added to infiltrate the cells for 1 min;
4. The pancreatin was sucked out, and the culture plate was placed in an incubator. Digestion was carried out for about 15 min at 37° C.;
5. 4 ml of complete culture solution was added in the culture plate to stop the digestion. The cells were carefully scoured with micropipette (1 ml) to give a uniform cell suspension. The suspension was implanted into a 96-well cell culture plate by 2500 cells/100 μl per well. The culture plate was incubated overnight under 5% CO2 at 37° C. In day 2, 100 μl of culture solution comprising the compound was added in each well, and further incubated for 68 h under 5% CO2 at 37° C.
6. The culture solution was sucked out;
7. 100 μl of serum-free culture solution containing 0.5 mg/ml MTT was added in each well, and incubated for 4 h;
8. The culture solution was carefully sucked out;
9. 100 μl of DMSO was added into each well and vibrated to dissolve;
10. OD values were determined at 490 nM.
as §1
IC50: concentration of a compound where inhibition ratio was 50%. IC50 values were fitted with Origin7.5.
As to `N#Cc1cnc2cc(O[C@H]3CCOC3)c(NC(=O)/C=C/CN3CCCCC3)cc2c1Nc1ccc(OCc2ccccn2)c(Cl)c1` [Example 185, (S,E/Z)-N-(4-(3-CHLORO-4-(PYRIDIN-2-YL-METHOXY)PHENYLAMINO)-3-CYANO-7-(TETRAHYDROFURAN-3-YL-OXY)QUINOLIN-6-YL)-4-(PIPERIDIN-1-YL)-BUT-2-ENAMIDE], the inhibition at 1 µM turned out to be 70%.

In the case of `CN(C)C/C=C/C(=O)Nc1cc2c(Nc3ccc(OCc4ccccc4)cc3)c(C#N)cnc2cc1O[C@H]1CCOC1` [Example 155, (S,E)-N-(4-(4-(BENZYLOXY)PHENYLAMINO)-3-CYANO-7-(TETRAHYDROFURAN-3-YL-OXY)QUINOLIN-6-YL)-4-(DIMETHYLAMINO)-BUT-2-ENAMIDE], the inhibition at 1 µM was 82%.

Regarding `CN(C)C/C=C/C(=O)Nc1cc2c(Nc3ccc(OCc4ccccc4F)c(Cl)c3)c(C#N)cnc2cc1O[C@H]1CCOC1` [Example 157, (S,E)-N-(4-(4-(2-FLUOROBENZYLOXY)-3-CHLOROPHENYLAMINO)-3-CYANO-7-(TETRAHYDROFURAN-3-YL-OXY)QUINOLIN-6-YL)-4-(DIMETHYLAMINO)-BUT-2-ENAMIDE], the inhibition at 1 µM is 72%.
